Test results as given in US20070276024A1, “Methods for Treating Diseases and Conditions with Inverse Agonists and for Screening for Agents Acting as Inverse Agonists” (Inverseon , Inc., priority 2003, published 2007).
“Also recorded” adds a separate entry of the source. Like-named read-outs stand apart in the source and are kept apart here.

Experiments:
asthmatic mice [1] = experiment: Airway resistance (Raw) response to methacholine in murine model of asthma; format: in vivo, Balb/cJ mice
Experimental: Balb/cJ mice aged 6 weeks (Jackson Animal Laboratory, Bar Harbor, Maine) were housed under specific pathogen-free conditions and fed a chicken ovalbumin-free diet. The Animal Research Ethics Boards of both the University of Houston and the Baylor College of Medicine approved all experiments reported here. […] Mice were sensitized with subcutaneous injection of 25 μg of ovalbumin adsorbed to aluminum hydroxide on protocol days 2, 9, and 16. Subsequently, mice were given 50 μL of saline solution containing 25 μg of ovalbumin intranasally, on a daily basis, from protocol days 23 through 27. A group of ovalbumin-sensitized saline-challenged mice serves as controls for systemic sensitization and respiratory challenges with ovalbumin. Prior to intranasal administrations, mice were sedated with halothane vapor.
To examine the effects of duration of β-adrenergic ligand therapy on the phenotype of the murine model of asthma, the experimental drugs were administered either acutely or chronically to different groups of asthmatic mice.
Asthmatic mice on acute therapy were given a single intravenous bolus infusion of either β-adrenergic drug or normal saline on protocol day 28, 15 minutes before airway responsiveness to methacholine was determined. […] […] […] These concentrations were chosen based on those producing therapeutic effects in mice in previously published studies. The non-asthmatic mice were fed normal chow.
On protocol day 28, mice were anesthetized, tracheotomized, and connected to a computer-controlled small animal ventilator (Flexivent, Scientific Respiratory Equipment, Inc., Montreal, Canada). Airway resistance (Raw) was measured using the forced oscillation technique. The cellular composition of bronchoalveolar lavage fluid (BALF) was also determined.
To induce airway constriction, a solution containing 150 μg/mL of acetyl-α-methylcholine chloride (methacholine) (Sigma Chemical, St. Louis, Mo.) was infused intravenously at constant rates using a syringe infusion pump (Raze Scientific Instruments, Stanford, Conn.). […] Each methacholine dose was administered for 3 to 5 minutes, during which data were sampled at 1-minute intervals and then averaged.
The complex input impedance of the respiratory system was computed and the value of the real part of respiratory system impedance at 19.75 Hz was taken to reflect the magnitude of airway resistance (Raw). To examine the degree of airway responsiveness of each animal, the values for Raw as a function of methacholine doses were plotted. The largest value for Raw achieved in response to methacholine stimulation was referred to as Rawpeak. For mice that achieved a plateau in the methacholine dose-Raw response curve, the ED50 was calculated by linear interpolation using the GraphPad Prism4 (GraphPad Software, Inc.). […] The Bonferroni test was used to examine the statistical differences between experimental groups. The effects of acute drug treatments on baseline respiratory system mechanics were assessed using a two-tailed paired t-test. A value of P<0.05 was considered significant.
For these experiments, salbutamol was used for chronic administration at 0.5 mg/kg/day with a minipump and for acute administration at 0.15 mg/kg by i.v. bolus 15 minutes prior to challenge. Alprenolol was used at a high dose of 7200 ppm in chow or at a low dose of 720 ppm in chow. Carvedilol was used at a high dose of 2400 ppm in chow or at a low dose of 720 ppm in chow.
The airway resistance (Raw) is plotted as cm H2O ml^−1 s.

patients with CHF = settings: cited from earlier work
β2-adrenergic receptor [2] = target: T1, β2-adrenergic receptor (Mus musculus, UniProt P18762); format: in vivo, mice; settings: for increase of the level of β2-adrenergic receptors over the non-treated mice: chronic administration; for Bmax (receptor density) / βmax (receptor density): lung membranes, mean±SEM, n=3-5; for Bmax (receptor density): drug treatment 15 Minutes; for βmax (receptor density): drug treatment 28 Days
Experimental: β2-adrenergic receptor numbers were measured in asthmatic mice as follows. […] Mice were sacrificed and lung membranes were isolated as follows. Frozen lung tissue was homogenized in an ice-cold buffer containing 0.32 M sucrose and 25 mM Tris (pH 7.4) using a polytron (Pro 200, Pro Scientific, Inc.). The homogenate was centrifuged at 1000×g for 10 min at 4° C. The resulting supernatant was centrifuged at 40,000×g for 20 min at 4° C. The pellet was suspended in an ice-cold 25 mM Tris-HCl buffer (pH 7.4) and centrifuged at 40,000'g for 20 min at 4° C. The final pellet was suspended in 200 μL of 25 mM Tris-HCl (pH 7.4); membrane protein concentration was determined by BCA protein assay kit. […] The incubation was done at 37° C. for 2 h and terminated by rapid vacuum filtration through glass fiber filters. The filters were washed three times with 250 μL of cold wash buffer (25 mM Tris-HCl, pH 7.4) and the radioactivity determined in a counter. […] Receptor densities are expressed as femtomoles of sites per milligram of protein. Bmax is determined by nonlinear regression of the saturation binding curves.

asthmatic mice [3] = experiment: Combination of carvedilol and salbutamol on airway hyperresponsiveness; format: in vivo, Balb/cJ mice; settings: at the highest dose of methacholine; 28 days treatment
Experimental: Mice (Balb/cJ) aged 6 weeks were housed under specific pathogen-free conditions and fed a chicken ovalbumin-free diet. Mice were systemically sensitized with ovalbumin adsorbed to aluminum hydroxide. Mice were treated as follows: CAR/SAL 28D=for 28 days mice (n=6-12) were administered carvedilol (2400 ppm in animal chow) and salbutamol (subcutaneous delivery of 0.5 mg/kg/day in an Alzet #2400 osmotic minipump); NTX S/C=mice (n=6-12) no drug treatment for 28 days; CTRL=mice (n=6-12) no drug treatment for 28 days, not subsequently challenged; CARHD 28D=for 28 days mice (n=6-12) were administered carvedilol only (2400 ppm in animal chow); CARHD 28D SAL AC=for 28 days mice (n=6-12) were administered carvedilol (2400 ppm in animal chow) and 15 minutes prior to measuring airway hyperresponsiveness, salbutamol was administered at a dose of 1.2 mg.kg.
To measure airway hyperresponsiveness after 28 days, all mice except the CTRL (control) mice were challenged with ovalbumin and then all mice were anesthetized, tracheotomized, and connected to a Flexivent small animal ventilator to measure airway resistance (Raw) by the forced oscillation technique. To induce airway constriction, a solution containing 150 μg/mL of methacholine was infused using a syringe infusion pump. The methacholine infusion was started at 0.008 mL/min and its rate was doubled stepwise up to a maximum […]. […]

[4] = tested on: sensitized and allergen-challenged mice; experiment: Aminophylline on acute airway effects of nadolol; format: in vivo
Experimental: Mice were sensitized to the allergen ovalbumin as described in Example 1.
At time point 1 (time=−10 min) baseline airway resistance of the mice was determined. At time point 2 (time=−5 min) methacholine was infused into mice to reach their EC70.

β2-adrenergic receptor [5] = target: T1, β2-adrenergic receptor; experiment: Immunohistochemistry of β2-adrenergic receptor levels in lungs; format: in vivo, mice; set-up: from tissue; host or cells: fixed lung sections of mice; settings: chronic treatment, versus untreated animals
Experimental: The mice were sacrificed and the lungs excised. Then the lungs were fixed in 4% paraformaldehyde (45 min, 0° C.). After fixation, lungs were washed in PBS (60 min) and placed in increasing concentrations of sucrose (10% sucrose/5% glycine in PBS for 30 min; 20% sucrose/10% glycine in PBS for 30 min; 30% sucrose/25% glycine in PBS for 12 h at 4° C.). Lungs were embedded in OCT and 12-μm sections cut with a Tissue-Tek II cryostat. The sections were air dried and fixed with 4% paraformaldehyde for 15 min. After 3 washes in PBS, the slides were blocked with 5% milk in PBS for 1 h, and then incubated overnight with anti-β2-adrenergic receptor antibody (1:200, Santa Cruz Biotechnology) in blocking solution. Slides were washed in PBS and incubated with secondary antibody (1:200, Cy3 goat anti-rabbit, 16 h at 4° C.). […] After washing with PBS, coverslips were mounted and viewed by epifluorescent microscopy.

asthmatic mice [6] = settings: Callaerts-Vegh et al. 2004, cited from earlier work
Phospholipase C (PLC-β1) = experiment: Ratio of phospholipase C to actin in cultured tracheal smooth muscle cells (immunoblot); format: cell-based; settings: cells from asthmatic mice, chronic high dose treatment
From the text: Cultured tracheal smooth muscle cells were obtained from mice exposed to the following treatments: NS/NC=nonasthmatic, non-challenged mice; S/C=asthmatic mice; Sal.Ac=asthmatic mice, acute salbutamol treatment; Sal.Ch=asthmatic mice, chronic salbutamol treatment; Nad.Ac=asthmatic mice, acute nadolol high dose treatment; and Nad.Ch=asthmatic mice, chronic nadolol high dose treatment.
After airway function experiments, the trachea were surgically removed from anesthetized mice that had been treated with drugs or vehicle. The trachea was minced and the cells plated and grown in culture. The smooth muscle cells grow faster and take over the culture dish. The cells were grown in medium which contained the drugs used in the treatment or vehicle controls. Phospholipase C (PLC-β1) was determined by immunoblotting with an antibody specific for the enzyme. Actin was used as a loading control and the amount of PLC-β1 was expressed as a ratio to actin.
The phospholipase C protein level was measured in these cultured cells and compared with the level of the structural protein actin as a baseline. The enzyme phospholipase C plays a key role in the pathway leading to asthmatic symptoms, as it cleaves a phosphodiester bond in membrane phospholipids, resulting in the formation of a 1,2-diglyceride. […]

[7] = asthmatic mice, acute: single intravenous bolus 15 minutes before methacholine
[8] = asthmatic mice, chronic administration, 28 days (in chow; salbutamol by osmotic minipump)

T1 sequence (P18762 whole entry): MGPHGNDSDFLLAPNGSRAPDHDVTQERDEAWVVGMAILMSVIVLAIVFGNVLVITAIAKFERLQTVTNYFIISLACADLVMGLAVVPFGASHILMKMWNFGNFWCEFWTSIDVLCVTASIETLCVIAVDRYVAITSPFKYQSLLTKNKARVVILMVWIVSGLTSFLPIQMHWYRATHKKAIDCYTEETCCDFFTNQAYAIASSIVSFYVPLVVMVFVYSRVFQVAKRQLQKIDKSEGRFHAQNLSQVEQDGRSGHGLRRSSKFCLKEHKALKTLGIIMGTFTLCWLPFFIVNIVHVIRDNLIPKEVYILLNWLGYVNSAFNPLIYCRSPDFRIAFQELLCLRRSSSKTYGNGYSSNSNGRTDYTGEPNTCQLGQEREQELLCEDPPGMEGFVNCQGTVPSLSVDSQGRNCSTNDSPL

## COc1ccccc1OCCNCC(O)COc1cccc2[nH]c3ccccc3c12 (centres unmarked) [Carvedilol, carvedilol]
Asthmatic mice [1]; 15 minutes of administration
  Decreased Raw: no
Asthmatic mice [1]; 2 days of administration
  Decreased Raw: no
Asthmatic mice [1]; 28 days of administration
  Decreased Raw: yes
Asthmatic mice [1]; [7]
  airway responsiveness to methacholine provocation (airway resistance, Raw): enhanced the airway responsiveness
Asthmatic mice [1]; [8]
  airway responsiveness to methacholine provocation (airway resistance, Raw): does reduce airway hyperresponsiveness; also recorded: reduced the responsiveness of asthmatic mice to methacholine provocation; also recorded: providing protection from airway hyperresponsiveness
Asthmatic mice [1]; asthmatic mice, chronic delivery, 28 days
  shift of methacholine dose-airway response relationship: shifts the sensitivity of the responsiveness to methacholine to lower concentrations; also recorded: shifted the methacholine dose-airway response relationship to the left
Patients with CHF
  clinical outcome (mortality, benefit over placebo): significant mortality reduction
β2-adrenergic receptor [2]; 15 minutes of administration
  Increased β2AR density: no
β2-adrenergic receptor [2]; 2 days of administration
  Increased β2AR density: no
β2-adrenergic receptor [2]; 28 days of administration
  Increased β2AR density: yes
β2-adrenergic receptor [2]; 28 days of administration, listed as carvedilol
  Increased β2AR density: increase in receptor density
β2-adrenergic receptor [2]
  increase of the level of β2-adrenergic receptors over the non-treated mice: over 10 fold
  Bmax (receptor density): 86.3 ± 19.42 femtomoles of sites per milligram of protein
  βmax (receptor density): 904.1 ± 43.46 femtomoles of sites per milligram of protein
Asthmatic mice [3]
  bronchoconstriction (airway resistance): higher bronchoconstriction than these treatments but less than the non-drug treated sensitized and challenged (NTX S/C) mice

## CC(C)(C)NCC(O)COc1cccc2c1CC(O)C(O)C2 (centres unmarked) [Nadolol, nadolol]
Asthmatic mice [1]; 15 minutes of administration
  Decreased Raw: no
Asthmatic mice [1]; 2 days of administration
  Decreased Raw: yes
Asthmatic mice [1]; 28 days of administration
  Decreased Raw: yes
Asthmatic mice [1]; asthmatic mice, 1 ppm in chow
  airway resistance (Raw): identical to the untreated mice
Asthmatic mice [1]; [7]
  airway responsiveness to methacholine provocation (airway resistance, Raw): enhanced the airway responsiveness
Asthmatic mice [1]; [8]
  airway responsiveness to methacholine provocation (airway resistance, Raw): produced a decrease in airway responsiveness; also recorded: providing protection from airway hyperresponsiveness; also recorded: reduced the responsiveness
[4]; pretreated 0.72 mg/kg i.p.
  baseline airway resistance: same baseline airway resistance
[4]; pretreated 0.72 mg/kg i.p. 15 minutes prior to methacholine, methacholine infused to EC70
  airway resistance upon methacholine challenge: ~4.5 units
β2-adrenergic receptor [2]; 15 minutes of administration
  Increased β2AR density: no
β2-adrenergic receptor [2]; 2 days of administration
  Increased β2AR density: yes
β2-adrenergic receptor [2]; 2 days of administration, listed as nadolol
  Increased β2AR density: increase in receptor density
β2-adrenergic receptor [2]; 28 days of administration
  Increased β2AR density: yes
β2-adrenergic receptor [2]; 28 days of administration, listed as nadolol
  Increased β2AR density: increase in receptor density
β2-adrenergic receptor [2]
  increase of the level of β2-adrenergic receptors over the non-treated mice: nearly eightfold increase
  Bmax (receptor density): 181.9 ± 48.28 femtomoles of sites per milligram of protein
  βmax (receptor density): 785.5 ± 154.8 femtomoles of sites per milligram of protein
β2-adrenergic receptor [5]
  labeling with anti-β2-adrenergic receptor antibodies in lungs: considerably more intense; also recorded: increase in β-adrenergic receptor density
Asthmatic mice [6]; administered acutely
  airway hyperresponsiveness: worsens airway hyperresponsiveness
Asthmatic mice [6]; administered chronically
  airway hyperresponsiveness: prevents airway hyperresponsiveness
Phospholipase C (PLC-β1)
  phospholipase C (ratio of PLC-β1 to actin): significantly decreases the activity of phospholipase C
